Converted amounts (≈) assume the structure as drawn.

We go through 5 molecules from patent US5808087A, “Sulfonium salts of pyrrolylbenzimidazoles” (priority 1995, dated 1998).

For one series, the system named is Mouse B16 melanoma cells. Briefly: In vitro tumor cell growth suppressing activity (Test Example 1). Particulars: 37° C., 3 days. It is filed as cell-based. The protocol:
Antitumor activity of the above-mentioned compounds was tested as follows. Mouse B16 melanoma cells were plated on a 96-well culture plate, test compounds were added to the cells one day after, and then the plate was incubated at 37° C. for 3 days under a 5%-CO2 atmosphere. According to the method described in Cancer Res. 48, 589-601, 1988, the concentrations of compounds required to inhibit cell growth by 50% were obtained. The activity is expressed by the concentrations (micrograms/milliliter). The result with distamycin is also shown for comparison.

Series [1] is described as follows: Stability of compounds (2), remaining rate by HPLC after one month at 60° C. (Test Example 4). It counts as physicochemical. As for the experimental part:
Stability of these compounds was investigated. As an index of stability, remaining rates of compounds were obtained by measuring remaining compounds after heating at 60° C. for one month. The remaining rates were measured by HPLC.

The nature of series [2]: Stability of compounds (1), remaining rate by HPLC after 3 days (Test Example 3). It is filed as physicochemical. The protocol:
In order to compare stabilities of the compounds, remaining rates of compounds were obtained by incubating the compounds at about 4° C. and 50° C. for 3 days and measuring comparative peak areas on HPLC (Table 4).

The subject of series [3] is Colon 26 mouse colon cancer cells. Briefly: In vivo antitumor activity, subcutaneously implanted Colon 26 (Test Example 2). Particulars: Colon 26 s.c. in CDF1 mice, i.v. on day 1, tumors weighed day 15; for 50% T/C: 21600 min. The arrangement: species or system mouse (female CDF1 mice). As for the experimental part: A cell suspension of Colon 26 mouse colon cancer cells (1×10^7 cells/ml) in HBSS (Hanks' Balanced Salt Solution) was prepared. This cell suspension (0.1 ml each) was implanted subcutaneously into the lateral region of female CDF1 mice (day 0). One day after the tumor cell injection (day 1), the body weight of the mice was measured, and then solutions of test compounds (5% glucose solutions containing 5% Tween 80) were injected intravenously into the tails of the mice. On day 15, the resulting tumors were taken out and weighed.
Percent average weights of tumors of animals in the test groups, in which the compounds were injected, with respect to those in the control group, in which no compounds were injected, were calculated and given as T/C values.

Consider `Cn1cc(NC(=O)CC[S+](C)C)cc1-c1nc2cc(C(=O)Nc3ccc(N(CCCl)CCCl)cc3)ccc2[nH]1` [1*^1], for which the “50% Suppressing Concentration” value in the series on Mouse B16 melanoma cells was found to be 0.71 µg/mL. In addition, the fraction remaining at 730 h in series [1] is 96.7%. This molecule showed a fraction remaining at 72 h in series [2] (50° C.) of 100%. Further, the “50% T/C” value in series [3] was 7.19 mg/kg.
In turn, `Cn1cc(NC(=O)CC[S+](C)C)cc1-c1nc2cc(C(=O)Nc3ccc(N(CCCl)CCCl)cc3)ccc2[nH]1` [IODIDE] registered a fraction remaining at 72 h in series [2] (4° C.) of 99%. In series [2] (50° C., 4320 min), this molecule showed a Remaining rate of 83%.
For `Cn1cc(NC(=O)c2cc(NC(=O)c3cc(NC=O)cn3C)cn2C)cc1C(=O)NCCC(=N)N` [Distamycin, distamycin, reference compound], the IC50 in the series on Mouse B16 melanoma cells (Mus musculus, 72 h, read-out: 50% Suppressing Concentration) was determined as 36 µg/mL (≈ 74.8 µM).
Take `COc1cccc2c1C(=O)c1c(O)c3c(c(O)c1C2=O)C[C@@](O)(C(=O)CO)C[C@@H]3O[C@H]1C[C@H](N)[C@H](O)[C@H](C)O1` [Adriamycin, adriamycin, reference compound]: in series [3] (Mus musculus, iv, 360 h, read-out: 50% T/C), the ED50 is 12.4 mg/kg.
In the case of `Cn1cc(NC(=O)CC[S+](C)C)cc1-c1nc2cc(C(=O)Nc3ccc(N(CCCl)CCCl)cc3)ccc2[nH]1` [25*^2], the “50% Suppressing Concentration” value with Mouse B16 melanoma cells is 0.99 µg/mL. For the same molecule, in series [1] (43800 min), the Remaining rate is reported as 99.4%. Also, the “50% T/C” value in series [3] is 9.35 mg/kg.

As usually defined, the amount remaining is what is left of the initial amount, in per cent. A high value points to greater stability.
